In patent US11883411B2 (priority 2022, dated 2024):
Entries after “also recorded” stand apart in the source; their conditions may differ.

Legend:
p30 protein of ASFV = type: cell-based, African swine fever virus (ASFV)
D1133L protein of ASFV = type: cell-based
PAM cells = conditions: pig
ASFV fluorescent virus [1] = type: cell-based, African swine fever virus (ASFV)
ASFV fluorescent virus [2] = assay: microbe, parasite or virus in culture; type: cell-based, African swine fever virus (ASFV)
D1133L RNA of ASFV = type: cell-based
ASFV fluorescent virus [3] = type: cell-based, African swine fever virus (ASFV); remark: listed apart in the source
p72 protein of ASFV = type: cell-based, African swine fever virus (ASFV)

What does the source list for C[C@@H](O[C@H]1OCCN(Cc2n[nH]c(=O)[nH]2)[C@H]1c1ccc(F)cc1)c1cc(C(F)(F)F)cc(C(F)(F)F)c1 [aprepitant, 5-[2(R)-[1(R)-[3,5-bis(trifluoromethyl)phenyl]ethoxy]-3(S)-(4-fluorophenyl)morpholino-4-ylmethyl]-3,4-dihydro-2H-1,2,4-triazol-3-one]?
expression level of p30 protein (p30 protein of ASFV): significantly decreased; expression level of D1133L protein (D1133L protein of ASFV): significantly decreased; cell viability (PAM cells): more than 50%; TCID50 of ASFV fluorescent virus (ASFV fluorescent virus [1]): reduce the TCID50; also recorded: minimum; ASFV genome copy number (ASFV fluorescent virus [2]): reduced; inhibition at 22 µM (ASFV fluorescent virus [2]; African swine fever virus, 48 h, read-out: inhibition of ASFV genome copy number): > 50%; inhibition rate of D1133L RNA expression level (D1133L RNA of ASFV): higher than 50%; fluorescence of ASFV fluorescent virus in infected cells (ASFV fluorescent virus [3]): gradually becomes darker; also recorded: completely disappears; expression level of p72 protein (p72 protein of ASFV): significantly decreased
